Key:
[1] = Particle-size distribution by laser diffraction; format: physicochemical; conditions: neat MgSt hydrate
Protocol: Particle-size distributions were determined using a laser diffraction system (series 2600, Malvern Instruments Ltd., Malvern, UK) equipped with a 63-mm lens (size range of 1.2-118 μm) and a stirred cell.

[2] = Percent water (free and bound) of neat MgSt hydrates; format: physicochemical; conditions: neat MgSt hydrate
Protocol: Thermal gravimetric analysis (Q50 TGA, TA Instruments) was carried out from 25 to 190° C. at a heating rate of 5° C./min. Data acquisition and analysis were conducted using TA Instruments software. FIG. 4 presents the TGA of MgSt-M and MgSt-D.

With magnesium stearate dihydrate [MgSt-D] the “Particle size (nominal mean particle size)” value [1] was 14.3 μm, the Dihydrate water [2] was 5.6% and the Monohydrate water [2] was 0%. The percent bound moisture [2] was 5.6%, the Free water ([2]; dihydrate) was “little or no free water” and the Free water ([2]; listed as MqSt-D, dihydrate) was 0%.

For “magnesium stearate [MgSt-M, reference compound]”, the “Particle size (nominal mean particle size)” value [1] was 10.6 μm, the Dihydrate water [2] was 0% and the Free water [2] was 0.6%. For the same substance, the Monohydrate water [2] was 2.8% and the percent bound moisture [2] was 2.8%.

Source: US20100316585A1, “Use of Magnesium Stearate Dihydrate for Lubrication of Solid Industrial or Consumer Products” (priority 2008, published 2010)
